ChEMBL document CHEMBL4725230, “Syntheses and pharmacokinetic evaluations of four metabolites of 2-(4-(2-((1H-benzo[d]imidazol-2-yl)thio)ethyl)piperazin-1-yl)-N-(6-methyl-2,4-bis-(methylthio)pyridin-3-yl)acetamide hydrochloride [K-604], an acyl-CoA:cholesterol O-acyltransferase-1 inhibitor” (Bioorg Med Chem, 2020)

Test: Retention time of the compound in human liver microsomes after 5 mins in presence of NADPH by LC-MS/MS analysis
Format: ADME, Microsome

| Compound | Retention_time [min] |
| --- | --- |
| CSc1cc(C)nc([S+](C)[O-])c1NC(=O)CN1CCN(CCSc2nc3ccccc3[nH]2)CC1 (stereo not drawn) | 2.73 |
| CSc1cc(C)nc(SC)c1NC(=O)CN1CCN(CCSc2nc3cc(O)ccc3[nH]2)CC1 | 3.21 |
| CSc1cc(C)nc(SC)c1NC(=O)CN1CCN(CC[S+]([O-])c2nc3ccccc3[nH]2)CC1 (stereo not drawn) | 5.78 |
